Test results reported in US6989148B2, “Treatment of diabetes” (priority 1994, dated 2006).
“Also recorded” adds a separate entry of the source.

Tests used:
Type 1 diabetic subject = experiment: GLIP along with insulin before Sustacal meal, post-prandial glycaemia (Example 6); type: in vivo, human; conditions: 50 μg GLIP with 5 units insulin (half the usual dose) subcutaneously before meal; one subject; FIG. 6 Panel A
Experimental: One Type 1 diabetic subject was given GLIP along with insulin and the effects on post-prandial glycaemia observed. The subject received 5 units of insulin and 50 μg GLIP as subcutaneous injections immediately prior to ingestion of a Sustacal meal as described in Example 1. Blood levels of GLIP were monitored by a standard radioimmunoassay method.

Type II diabetics = conditions: Gutniak et al. (1992), WO93/18786; cited from earlier work
normal volunteers = experiment: Sustacal meal preceded by subcutaneous GLIP injection in normal volunteers (Example 4); type: in vivo, human; conditions: subcutaneous GLIP (100 μg; b67 prints 1.00 μg) before Sustacal meal
From the text: Results are shown in FIG. 4. *indicates statistically significant differences between treatments (p<0.05).

[1] = test system: subjects with remission phase Type I diabetes; experiment: Sustacal meal with infusion of 0.75 pm/kg/min GLIP versus saline (Example 3); type: in vivo, human; conditions: 0.75 pmol/kg/min GLIP along with Sustacal meal, versus saline control; FIG. 3
Experimental: The test was conducted as described in Example 1 and blood glucose and C-peptide levels were measured. On a further test day, the subjects were studied during saline infusion after a similar Sustacal meal.

[2] = test system: subjects with remission phase Type I diabetes; experiment: Intravenous glucose infusion with intravenous GLIP (Example 2); type: in vivo, human; conditions: IV GLIP 1.2 pm/kg/min for 60 min along with IV glucose 20 g over 60 min; FIG. 2
Experimental: Four subjects with remission phase Type I diabetes were studied during intravenous glucose infusion. Subjects prepared for the tests as described in Example 1, but received an intravenous infusion of glucose (20 g over 60 min. constant rate)instead of the Sustacal meal. […] Blood levels of glucose and C-peptide were monitored as in Example 1.

Type I diabetic subjects = experiment: Sustacal meal preceded by subcutaneous GLIP injection in Type I diabetics (Example 5); type: in vivo, human; conditions: 100 μg GLIP subcutaneously prior to test meal
From the text: 7 Type I diabetic subjects were studied.
The results are shown in FIG. 5. *indicates statistically significant differences between treatments (p<0.05)

[3] = test system: subjects with remission phase Type I diabetes; experiment: Sustacal meal with intravenous GLIP infusion 1.2 pm/kg/min (Example 1); type: in vivo, human
Experimental: 7 subjects with remission phase Type I diabetes were studied after ingestion of a standardised meal of Sustacal (Upjohn) (delivering […]). Subjects continued their normal insulin treatment programme on the day prior to the test and, on the day of the test, omitted their morning insulin injection and arrived fasting at 8:00 am. […] Infusion was continued for 120 minutes. Blood levels of glucose, C-peptide, gastrin, glucagon and HPP were monitored by standard radioimmunoassay methods in samples taken before and at intervals during the study, up to 180 minutes. On another test day, subjects were given the Sustacal meal alone and the same analytes were similarly monitored.

humans and other mammals = conditions: Wettergren et al. (1993); cited from earlier work
[4] = IV infusion 1.2 pm/kg/min after Sustacal meal

Which “blood glucose after Sustacal meal (maximum)” value (Type 1 diabetic subject) does the source give for “Glucagon-like peptide 1(7-36)amide [GLIP]” here?
Its value is ≤ 8 mM.

And the “effect of combination with oral hypoglycaemic agents” value (Type II diabetics)?
Its value is “synergistic effect”.

What about the “increase in blood levels of C-peptide” value (normal volunteers) of the same substance?
Its value is “delay in increase”.

And the “increase in blood levels of HPP” value (normal volunteers)?
The value was “delay in increase”.

And the “increase in blood levels of glucose” value (normal volunteers)?
Its value is “delay in increase”.

And the “increase in blood levels of insulin” value (normal volunteers)?
The value was “delay in increase”.

And the “increase in blood glucose” value [1]?
The value was “increase in glucose was less than in the control experiment”.

And the “rise in C-peptide” value [1]?
The value was “rise in C-peptide was similar to the control experiment”.

And the blood glucose level [2]?
The blood glucose level was “improved control of blood glucose level”.

And the “secretion of endogenous insulin” value [2]?
Its value is “stimulated secretion of endogenous insulin”.

And the “blood glucose levels compared to control” value (Type I diabetic subjects; no morning insulin, FIG. 5 Panel A)?
The value was “lowering of blood glucose levels”.

And the “pancreatic polypeptide (HPP) levels” value (Type I diabetic subjects; FIG. 5 Panel D)?
Its value is “delayed rise in pancreatic polypeptide (HPP) levels”.

And the “insulin secretion over control levels” value (Type I diabetic subjects; FIG. 5 Panels B and C)?
The value was “no enhancement of insulin secretion over control levels”.

And the “blood levels of C-peptide” value [3, 4]?
The value was “prevented a significant increase in blood levels of C-peptide”.

And the “plasma glucagon levels stimulated by the meal” value [3, 4]?
The value was “prevented the mean rise in plasma glucagon levels”.

What about the “secretion of pancreatic polypeptide (PP) after meal” value ([3]; IV infusion 1.2 pm/kg/min after Sustacal meal, FIG. 1 Panel C) of the same substance?
The value was “this response was absent during GLIP infusion”.

What about the “gastrin levels / gastrin response” value ([3]; IV infusion 1.2 pm/kg/min after Sustacal meal, FIG. 1 Panel E) of the same substance?
Its value is “normal gastrin response; also recorded: not significantly affected”.

What about the “blood glucose level after a meal” value ([3]; IV infusion 1.2 pm/kg/min for 120 min after Sustacal meal, FIG. 1 Panel A) of the same substance?
Its value is “excellent control of blood glucose level”.

What about the gastric emptying (humans and other mammals) of the same substance?
Its gastric emptying is “delay of gastric emptying”.
